Experimental data as given in patent publication US20210322375A1, “COMBINATION DRUG FORMULATIONS FOR TREATING PATIENTS WITH CARDIOVASCULAR DISEASE AND ASSOCIATED CONDITIONS” (Esperion Therapeutics, Inc., priority 2018, published 2021).

Legend:
[1] = system: hypercholesterolemic patients; assay: Phase 2b randomized double-blind trial: percent change from baseline to week 12 in lipids and CRP; type: in vivo, human
Experimental: Brief Description of Clinical Study and Results.
Study Objectives. The primary objective was to assess the LDL-C-lowering effect of ETC-1002 monotherapy (120 mg or 180 mg daily) versus EZE monotherapy in hypercholesterolemic patients with or without statin intolerance. Secondary objectives were to characterize the dose response of ETC-1002, evaluate the impact of treatment on other lipid and cardiometabolic biomarkers, compare the LDL-C-lowering effect of ETC-1002 plus EZE combination therapy with EZE monotherapy, and characterize the safety and tolerability of the treatment regimens, including muscle-related adverse events (AEs).
Overall Study Design and Plan. […] 16, 2013 to Aug.
LDL-C was calculated using the Friedewald equation.
Efficacy Endpoints. The primary endpoint was the percent change from baseline to week 12 in calculated LDL-C in patients treated with ETC-1002 monotherapy versus those treated with EZE alone. Secondary endpoints included the dose-response relationship between ETC-1002 and the percent change in LDL-C from baseline to week 12, the percent change in LDL-C from baseline to week 12 in patients treated with ETC-1002 plus EZE versus those treated with EZE alone, and the percent change from baseline to week 12 for all treatment groups in LDL particle number, apolipoprotein B, total cholesterol, non-high-density lipoprotein cholesterol (non-HDL-C), HDL-C, HDL particle number, apolipoprotein A-I, triglycerides, very-low-density lipoprotein (VLDL) particle number, and high-sensitivity C-reactive protein (CRP). Lipoprotein particle number was measured using nuclear magnetic resonance […].
Statistical Plan and Analyses. The study was designed to include 322 patients: 92 patients in each monotherapy group and 23 patients in each combination therapy group. Sample size calculations were performed using nQuery Advisor® version 7.0 (Statistical Solutions, Cork, Ireland). The sample size of 92 patients per monotherapy group was expected to provide 90% power to detect a difference of 10% in the absolute percent change from baseline to week 12 in LDL-C between either ETC-1002 treatment group and the EZE monotherapy group. This calculation was based on a 2-sided t test at the 5% level of significance and assumed a common standard deviation of 15% in the statin-tolerant patients and 22% in the statin-intolerant patients with a dropout rate of 15%.
An analysis of covariance was used to compare each ETC-1002 treatment group with EZE monotherapy for each of the efficacy endpoints. The primary model included the effects of treatment and statin intolerance and the baseline value as a covariate. Baseline was defined as the mean of values from weeks −1 and 0 for LDL-C, non-HDL-C, total cholesterol, HDL-C, and triglycerides. For all other lipid and biomarker measures, baseline was defined as the last value before the first dose of study drug. Missing values at week 12 were imputed using the last-observation-carried-forward procedure. When LDL-C could not be calculated (i.e., triglycerides >400 mg/dL), beta-quantification measurements were used to determine LDL-C values. Least-squares (LS) means and standard errors were obtained for each treatment group; differences in LS means and p-values were obtained for the treatment comparisons. Graphical methods (e.g., normal probability plot and histogram of residuals, plot of residuals vs. predicted values) or analytical methods (e.g., Shapiro-Wilk test), or both, were used to assess the model assumptions. Because of departures from normality observed in the parameters of triglycerides, CRP, and VLDL particle number, nonparametric analyses were performed for these measures, with p-values obtained from the Wilcoxon rank-sum test and median values presented.
Percent changes from baseline in LDL-C also were summarized by statin-tolerance subgroup. […]

[2] = system: hypercholesterolemic patients; assay: Phase 2b trial: treatment-emergent adverse events and laboratory safety
Description: Study Population. Medically stable, hypercholesterolemic men and women aged 18 through 80 years with a body mass index between 18 to 45 kg/m^2 were included in the study. […] The study population included both statin-tolerant and statin-intolerant participants. Statin intolerance was defined as the inability to tolerate ≥2 statins because of muscle-related symptoms such as pain, weakness, or cramping that began or increased during statin therapy and resolved on statin discontinuation. At least 1 statin must have been administered at the lowest approved daily dose, defined as rosuvastatin 5 mg, atorvastatin 10 mg, simvastatin 10 mg, lovastatin 20 mg, pravastatin 40 mg, fluvastatin 40 mg, or pitavastatin 2 mg. Treatment with less than the lowest approved daily dose of a statin (i.e., skipping days) was considered equivalent to not tolerating 1 statin at the lowest approved daily dose.
Overall Study Design and Plan. […] Patients underwent a 5-week washout of all lipid-regulating drugs and dietary supplements and abstained from these drugs and supplements throughout the study. Patients also underwent a 5-week patient-only-blinded placebo run-in during the screening period (week −5 to week 0). This single-blind placebo run-in period was used to eliminate patients with muscle-related AEs during placebo treatment. Patients reporting new or worsening, unexplained muscle-related AEs during this run-in period were excluded from the study.
Patients were stratified (1:1) by history of statin intolerance and randomized at week 0 in a 4:4:4:1:1 ratio to once-daily treatment with capsules containing ETC-1002 120 mg, ETC-1002 180 mg, EZE, ETC-1002 120 mg plus EZE, or ETC-1002 180 mg plus EZE. […] A contract laboratory (Medpace Inc., Cincinnati, Ohio), performed all clinical laboratory tests. LDL-C was calculated using the Friedewald equation. Phlebotomy was performed after a minimum 12-hour fast (water was allowed) and only if the patient took their dose of study drug the previous day.
Safety Endpoints. The safety of ETC-1002 was assessed using treatment-emergent AEs; hematology, serum chemistry, and urinalysis laboratory values; physical examination findings; vital sign measurements; electrocardiogram (ECG) readings; weight; and ankle and waist circumference measurements. AEs were coded using the Medical Dictionary for Regulatory Activities version 16.0 and evaluated by the investigator for severity and relation to study drug. Muscle-related AEs were defined as those from the system organ class of musculoskeletal and connective tissue disorders, except for those that were not obviously muscle related. Terms included in the muscle-related AE analysis were selected from this system organ class after database lock and before unblinding.
Safety analyses were performed on the safety population, which included randomized patients who received at least 1 dose of study drug. Baseline patient characteristics were summarized for the safety population by treatment group and statin-tolerance subgroup.
Muscle-related AEs also were summarized by statin-tolerance subgroup.

[3] = EZE 10 mg daily, mITT n = 98, LS mean ± SE
[4] = EZE 10 mg daily, mITT n = 98, median (interquartile range)
[5] = EZE 10 mg daily, safety population n = 99
[6] = statin-intolerant patients, EZE 10 mg, n = 51
[7] = statin-tolerant patients, EZE 10 mg, n = 48

In the case of O=C1[C@H](CC[C@H](O)c2ccc(F)cc2)[C@@H](c2ccc(O)cc2)N1c1ccc(F)cc1 [EZE, (3R,4S)-1-(4-fluorophenyl)-3-[(3S)-3-(4-fluorophenyl)-3-hydroxypropyl]-4-(4-hydroxyphenyl)azetidin-2-one, reference compound], the “Apolipoprotein A-I, percent change from baseline to week 12” value [1, 3] is reported as 2.0 ± 1.1%, the “Apolipoprotein B, percent change from baseline to week 12” value [1, 3] is reported as −15.2 ± 1.2% and the “HDL particle number, percent change from baseline to week 12” value [1, 3] is reported as 6.7 ± 1.3%. For the same compound, the “HDL-C, percent change from baseline to week 12” value [1, 3] was 5.0 ± 1.4%, the “LDL particle number, percent change from baseline to week 12” value [1, 3] was −12.7 ± 1.7% and the “LDL-C, percent change from baseline to week 12” value [1, 3] was −21.2 ± 1.3%. The “Non-HDL-C, percent change from baseline to week 12” value [1, 3] was −18.7 ± 1.2%, the “Total cholesterol, percent change from baseline to week 12” value [1, 3] was −14.3 ± 0.9% and the “CRP, percent change from baseline to week 12” value [1, 4] was −10.5 (59.0) %. The “Triglycerides, percent change from baseline to week 12” value [1, 4] was −7.0 (34.9) %, the “VLDL particle number, percent change from baseline to week 12” value [1, 4] was −12.6 (63.4) % and the CRP reduction ([1]; EZE alone) was 10%. The HDL-C increase ([1]; EZE alone, week 12) was 5%, the “ALT or AST, or both, increased >3 times the upper limit of normal at any measurement” value ([2]; EZE) was 1 patient and the “Serious AE reported (event)” value ([2]; EZE) was “transient ischemic attack”. For the same compound, the “ALT increased, patients” value [2, 5] was 1 (1%) n (%), the “AST increased, patients” value [2, 5] was 0 n (%) and the “Any AE(s), patients” value [2, 5] was 53 (54%) n (%). For the same compound, the “Arthralgia, patients” value [2, 5] was 4 (4%) n (%), the “Back pain, patients” value [2, 5] was 8 (8%) n (%) and the “Blood CK increased, patients” value [2, 5] was 1 (1%) n (%). For the same compound, the “Constipation, patients” value [2, 5] was 1 (1%) n (%), the “Discontinuation due to AE(s), patients” value [2, 5] was 8 (8%) n (%) and the “Headache, patients” value [2, 5] was 1 (1%) n (%). The “Myalgia, patients” value [2, 5] was 6 (6%) n (%), the “Nasopharyngitis, patients” value [2, 5] was 4 (4%) n (%) and the “Serious AE(s), patients” value [2, 5] was 1 (1%) n (%). For the same compound, the “Study drug-related AE(s), patients” value [2, 5] was 19 (19%) n (%), the “Upper respiratory tract infection, patients” value [2, 5] was 1 (1%) n (%) and the “Urinary tract infection, patients” value [2, 5] was 6 (6%) n (%). The “Myalgia, patients, entire study population” value ([2]; EZE alone) was 6%, the “Any muscle-related AE, patients” value [2, 6] was 9 (18%) n (%) and the “Muscle spasms, patients” value [2, 6] was 1 (2%) n (%). For the same compound, the “Muscle-related AE leading to discontinuation, patients” value [2, 6] was 5 (10%) n (%), the “Muscular weakness, patients” value [2, 6] was 1 (2%) n (%) and the “Musculoskeletal chest pain, patients” value [2, 6] was 0 n (%). The “Musculoskeletal stiffness, patients” value [2, 6] was 1 (2%) n (%), the “Myalgia, patients” value [2, 6] was 6 (12%) n (%) and the “Pain in extremity, patients” value [2, 6] was 3 (6%) n (%). For the same compound, the “Sensation of heaviness, patients” value [2, 6] was 1 (2%) n (%), the “Any muscle-related AE, patients” value [2, 7] was 3 (6%) n (%) and the “Muscle spasms, patients” value [2, 7] was 2 (4%) n (%). For the same compound, the “Muscle-related AE leading to discontinuation, patients” value [2, 7] was 1 (2%) n (%), the “Musculoskeletal pain, patients” value [2, 7] was 1 (2%) n (%) and the “Myalgia, patients” value [2, 7] was 0 n (%).
